Results on 22 molecules are retold here after US8278311B2, “Substituted pyrimidine derivatives” (Abbott Laboratories, priority 2008, dated 2012).

The target in experiment [1] is T1, histamine H4 receptor (Homo sapiens, UniProt Q9H3N8).
T1 construct: expressed in transfected cells
The experiment in a line: 3H-histamine competition binding assay. To be noted: membranes of HEK-293 cells transiently transfected with histamine H4 receptor; [3H]-histamine, 25° C., 1 hour; read-out: Binding assay Potency (Ki). The method, then:
The potency of compounds of the invention in displacing ^3H-histamine in competition binding assays is assessed by methods described in Esbenshade, et al., Biochemical Pharmacology (2004), vol. 68, pp. 933-945. In this assay, membranes were prepared from HEK-293 cells transiently transfected with the pClNeo expression vector harboring the histamine H4 receptor by homogenization of the cells on ice in TE buffer (50 mM Tris-HCl buffer, pH 7.4, containing 5 mM EDTA), 1 mM benzamidine, 2 μg/mL aprotinin, 1 μg/mL leupeptin, and 1 μg/mL pepstatin. The homogenate was centrifuged at 40,000 g for 20 minutes at 4° C. This step was repeated, and the resulting pellet was resuspended in TE buffer. Aliquots were frozen at −70° C. until needed. On the day of assay, membranes were thawed and diluted with TE buffer. Competition radioligand binding assays were performed with increasing concentrations of test compound in the presence of [^3H]-histamine incubated at 25° C. for 1 hour in a total volume of 0.5 mL of 50 mM Tris, 5 mM EDTA, pH 7.4. All binding reactions were terminated by filtration under vacuum onto polyethylenimine (0.3%) presoaked Unifilters (PerkinElmer Life Sciences) or Whatman GF/B filters (Whatman, Clifton, N.J.) followed by three brief washes with 4 mL of ice-cold TE buffer. Bound radiolabel was determined by liquid scintillation counting. For all of the radioligand competition binding assays, IC50 values and Hill slopes were determined by Hill transformation of the data and Ki values were determined by the Cheng-Prusoff equation. The following table of representative histamine H4 receptor ligands is provided, along with potency values: […]

The target of experiment [2] is T1, histamine H4 receptor. Briefly: in vitro assay of histamine H4 activity using FLIPR-Ca+2 flux. It is filed as cell-based. To be noted: HEK-293 cells stably expressing histamine H4 receptor and Gαqi5, Fluo-4; Kb for antagonists and inverse agonists, EC50 for partial agonists. The text has this:
There are many methods available to show the effectiveness of compounds as histamine H4 receptor ligands. Histamine H4 receptors from mammalian species have been cloned. Methods to clone, express, and assess the potency and functional activity of such cloned genes are well known to those skilled in the art of molecular biology. Examples of methods of cloning and expressing histamine H4 receptors, and of assessing the potency and functional activity are described in Nguyen, et al. Molecular Pharmacology (2001) vol. 59 pp. 427-433; Zhu, et al. Molecular Pharmacology (2001) vol. 59 pp. 434-441; Coge, et al., Biochemical and Biophysical Research Communications (2001) vol. 284, pp. 301-309; Liu, et al. Molecular Pharmacology (2001) vol. 59 pp. 420-426; Liu, et al. Journal of Pharmacology and Experimental Therapeutics (2001) v. 299, pp. 121-130; and Thurmond, et al. Journal of Pharmacology and Experimental Therapeutics (2004) v. 309, pp. 404-413. In the present case, to determine the potency and effectiveness of representative compounds of this invention as histamine-H4 receptor ligands (H4 receptor ligands), the following tests were conducted according to previously described methods (see Esbenshade, et al., Biochemical Pharmacology (2004), vol. 68, pp. 933-945, and in Krueger, et al., Journal of Pharmacology and Experimental Therapeutics (2005) v. 314, pp. 271-281): histamine H4 receptors were cloned and stably expressed in HEK-293 (human embryonic kidney) cells coexpressing a Gαqi5. Before testing, cells are loaded with a Ca+^2 sensitive fluorescent dye, in this case Fluo-4 (Invitrogen, Carlsbad, Calif.). In the case of partial agonist or agonist ligands, addition of compound to the cells leads to the increase in intracellular Ca^+2 which is detected by FLIPR (Fluorescence Imaging Plate Reader; Molecular Devices, Sunnyvale, Calif.) technology. In a similar manner, compounds that are antagonists or inverse agonists, block the increase in fluorescence induced by the full histamine H4 agonist histamine, and partial agonists reduce the amount of fluorescence induced by the full histamine H4 agonist histamine. The fluorescence intensities measured before addition of the test compound are subtracted from the fluorescence intensities at later time points. Peak response values determined at each concentration of ligand are expressed as a percentage of the response obtained with the full agonist histamine. Concentration versus response data are analyzed to obtain compound potency as Kb values for antagonists and inverse agonists and as EC50 values for partial agonists.

The structures appear in SMILES notation. pKi: −log10 of the molar value.

T1 sequence (Q9H3N8 whole entry, species assumed): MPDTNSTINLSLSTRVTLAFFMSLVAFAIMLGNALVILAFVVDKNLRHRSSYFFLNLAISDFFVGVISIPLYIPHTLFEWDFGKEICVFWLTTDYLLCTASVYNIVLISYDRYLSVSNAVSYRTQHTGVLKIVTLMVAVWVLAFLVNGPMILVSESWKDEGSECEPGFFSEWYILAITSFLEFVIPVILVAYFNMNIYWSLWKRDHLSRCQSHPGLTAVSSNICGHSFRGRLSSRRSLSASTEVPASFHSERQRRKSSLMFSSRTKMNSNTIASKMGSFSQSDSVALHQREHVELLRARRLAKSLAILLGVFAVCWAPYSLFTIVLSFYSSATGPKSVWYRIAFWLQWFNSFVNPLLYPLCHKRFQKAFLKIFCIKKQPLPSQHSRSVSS

For orientation: pKi means the negative decadic logarithm of the Ki, by convention in mol/L. With `CN[C@@H]1CCN(c2nc(N)nc3c2CC[C@@H]2CCCC[C@@H]32)C1` (mixture of isomers) [Example 16, trans-4-[(3R)-3-(methylamino)pyrrolidin-1-yl]-5,6,6a,7,8,9,10,10a-octahydrobenzo[h]quinazolin-2-amine], in experiment [1], the pKi was 8.59. This molecule had a Potency in experiment [2] of 1.4 nM.

Turning to `CN[C@@H]1CCN(c2nc(N)nc3c2CCCC2C4CCC(CC4)C32)C1` (stereo partly drawn) [Example 28, 4-[(3R)-3-(methylamino)pyrrolidin-1-yl]-6,7,7a,8,9,10,11,11a-octahydro-5H-8,11-ethanobenzo[6,7]cyclohepta[1,2-d]pyrimidin-2-amine], the negative-log Ki (pKi) in experiment [1] was 8.26. The molecule also returned a Potency in experiment [2] of 21.9 nM.

In experiment [2], `Nc1nc2c(c(N3C[C@H]4CCCN[C@H]4C3)n1)CCCC1C3CCC(CC3)C21` (relative stereo) [Example 27, 4-cis-octahydro-6H-pyrrolo[3,4-b]pyridin-6-yl-6,7,7a,8,9,10,11,11a-octahydro-5H-8,11-ethanobenzo[6,7]cyclohepta[1,2-d]pyrimidin-2-amine] gave a Potency of 89.1 nM.

In experiment [2], `CN1CCCN(c2nc(N)nc3c2CCC2=C3C3CCCCC3O2)CC1` (centres unmarked) [Example 5, 4-(4-methyl-1,4-diazepan-1-yl)-5,6,7a,8,9,10,11,11a-octahydro[1]benzofuro[2,3-h]quinazolin-2-amine] yielded a Potency of 16 nM.

For the molecule `Nc1nc2c(c(N3CC[C@@H](N)C3)n1)CC[C@@H]1CCCC[C@@H]21` (mixture of isomers) [Example 17, trans-4-[(3R)-3-aminopyrrolidin-1-yl]-5,6,6a,7,8,9,10,10a-octahydrobenzo[h]quinazolin-2-amine], the Potency in experiment [2] worked out at 1.2 nM.

In experiment [2], `CCNC1CN(c2nc(N)nc3c2CC[C@@H]2CCCC[C@H]32)C1` (relative stereo) [Example 23, cis-4-[3-(ethylamino)azetidin-1-yl]-5,6,6a,7,8,9,10,10a-octahydrobenzo[h]quinazolin-2-amine] showed a Potency of 3.0 nM.

With `CN[C@@H]1CCN(c2nc(N)nc3c2CCCC2C4C=CC(CC4)C32)C1` (stereo partly drawn) [Example 25, 4-[(3R)-3-(methylamino)pyrrolidin-1-yl]-6,7,7a,8,11,11a-hexahydro-5H-8,11-ethanobenzo[6,7]cyclohepta[1,2-d]pyrimidin-2-amine], the pKi in experiment [1] was 8.25. This molecule returned a Potency in experiment [2] of 24.0 nM.

As for `Nc1nc2c(c(N3CC[C@@H](N)C3)n1)CC[C@@H]1CCCC[C@H]21` (mixture of isomers) [Example 20, cis-4-[(3R)-3-aminopyrrolidin-1-yl]-5,6,6a,7,8,9,10,10a-octahydrobenzo[h]quinazolin-2-amine], the Potency in experiment [2] is 1.4 nM.

Consider `CCNC1CN(c2nc(N)nc3c2CC[C@@H]2CCCC[C@@H]32)C1.O=C(O)C(F)(F)F.O=C(O)C(F)(F)F` (relative stereo) [Example 15, trans-4-[3-(ethylamino)azetidin-1-yl]-5,6,6a,7,8,9,10,10a-octahydrobenzo[h]quinazolin-2-amine bis(trifluoroacetate)], for which the pKi in experiment [1] was 9.00. Further, in experiment [2], the Potency is recorded as 3.2 nM.

Consider `Nc1nc2c(c(N3CCNCC3)n1)CC[C@@H]1CCCC[C@@H]21` (relative stereo) [Example 12, trans-4-piperazin-1-yl-5,6,6a,7,8,9,10,10a-octahydrobenzo[h]quinazolin-2-amine], for which the pKi in experiment [1] was 8.70. In experiment [2], the Potency was 6.9 nM.

Take `Nc1nc2c(c(N3CCNCC3)n1)CCCC1C3C=CC(CC3)C21` (centres unmarked) [Example 26, 4-piperazin-1-yl-6,7,7a,8,11,11a-hexahydro-5H-8,11-ethanobenzo[6,7]cyclohepta[1,2-d]pyrimidin-2-amine]: in experiment [2], the Potency is recorded as 60.3 nM.

Take `Nc1nc2c(c(N3CCCNCC3)n1)CCC1=C2C2CCCCC2O1` (centres unmarked) [Example 9, 4-(1,4-diazepan-1-yl)-5,6,7a8,9,10,11,11a-octahydro[1]benzofuro[2,3-h]quinazolin-2-amine]: the Potency in experiment [2] came out at 16 nM.

Consider `CN[C@@H]1CCN(c2nc(N)nc3c2CCC2=C3C3CCCCC3O2)C1` (stereo partly drawn) [Example 2, 4-[(3R)-3-(methylamino)pyrrolidin-1-yl]-5,6,7a,8,9,10,11,11a-octahydro[1]benzofuro[2,3-h]quinazolin-2-amine], for which, in experiment [1], the pKi is 8.48. Also, the Potency in experiment [2] is 5.9 nM.

With `Nc1nc2c(c(N3CCNCC3)n1)CC[C@@H]1CCCC[C@H]21` (relative stereo) [Example 13, cis-4-piperazin-1-yl-5,6,6a,7,8,9,10,10a-octahydrobenzo[h]quinazolin-2-amine], the pKi in experiment [1] was 8.74. Moreover, the Potency in experiment [2] is 3.3 nM.

In experiment [2], `Nc1nc(N2C[C@H]3CNC[C@H]32)c2ccc3c(c2n1)C1CCCCC1O3` (stereo partly drawn) [Example 8, 4-[(1R,5S)-3,6-diazabicyclo[3.2.0]hept-6-yl]-7a,8,9,10,11,11a-hexahydro[1]benzofuro[2,3-h]quinazolin-2-amine] had a Potency of 61.7 nM.

As to `Nc1nc2c(c(N3CCCN(C4CCC4)CC3)n1)CCC1=C2C2CCCCC2O1` (centres unmarked) [Example 11, 4-(4-cyclobutyl-1,4-diazepan-1-yl)-5,6,7a,8,9,10,11,11a-octahydro[1]benzofuro[2,3-h]quinazolin-2-amine], the Potency in experiment [2] is 2000 nM.

Consider `Nc1nc2c(c(N3C[C@H]4CCCN[C@H]4C3)n1)CC[C@@H]1CCCC[C@H]21` (relative stereo) [Example 21, cis-4-[cis-octahydro-6H-pyrrolo[3,4-b]pyridin-6-yl]-5,6,6a,7,8,9,10,10a-octahydrobenzo[h]quinazolin-2-amine], for which, in experiment [2], the Potency was determined as 8.3 nM.

On to `CC(C)N1CCCN(c2nc(N)nc3c2CCC2=C3C3CCCCC3O2)CC1` (centres unmarked) [Example 10, 4-(4-isopropyl-1,4-diazepan-1-yl)-5,6,7a,8,9,10,11,11a-octahydro[1]benzofuro[2,3-h]quinazolin-2-amine], for which the Potency in experiment [2] stood at 1260 nM.

In experiment [2], `CN1CCN(c2nc(N)nc3c2CCC2=C3C3CCCCC3O2)CC1` (centres unmarked) [Example 6, 4-(4-methylpiperazin-1-yl)-5,6,7a,8,9,10,11,11a-octahydro[1]benzofuro[2,3-h]quinazolin-2-amine] had a Potency of 25 nM.

Turning to `CNC1CN(c2nc(N)nc3c2CC[C@@H]2CCCC[C@H]32)C1` (relative stereo) [Example 22, cis-4-[3-(methylamino)azetidin-1-yl]-5,6,6a,7,8,9,10,10a-octahydrobenzo[h]quinazolin-2-amine], the Potency in experiment [2] came out at 3.0 nM.

Take `CN[C@@H]1CCN(c2nc(N)nc3c2CC[C@@H]2CCCC[C@H]32)C1` (mixture of isomers) [Example 19, cis-4-[(3R)-3-(methylamino)pyrrolidin-1-yl]-5,6,6a,7,8,9,10,10a-octahydrobenzo[h]quinazolin-2-amine]: the Potency in experiment [2] stood at 1.6 nM.

Molecule `Nc1nc2c(c(N3C[C@H]4CCCN[C@H]4C3)n1)CCCC1C3C=CC(CC3)C21` (relative stereo) [Example 24, 4-cis-octahydro-6H-pyrrolo[3,4-b]pyridin-6-yl-6,7,7a,8,11,11a-hexahydro-5H-8,11-ethanobenzo[6,7]cyclohepta[1,2-d]pyrimidin-2-amine] yielded a Potency in experiment [2] of 91.2 nM.
